Data reported in US20260232726A1, “USE OF BORON FOR THE TREATMENT OF LEISHMANIASIS DISEASE OF NEURONAL ORIGIN” (YEDITEPE UNIVERSITESI, priority 2023, published 2026).
Read-outs that look alike come from different tables or passages of the source.

Key:
leishmaniasis = conditions: cited from earlier work
[1] = system: healthy C8-S astrocyte cells; assay: Cell viability of healthy astrocytes treated with SPT (MTS method); assay type: cell-based, murine
Description: (§1) Astrocyte C8-S murine cell line (ATCC) is grown as monolayer in RPMI 1640 nutrient medium (2 mM L-glutamine, 100 U/ml penicillin, 100 μg/ml streptomycin) with 10% FBS, heat inactivated in a humidified atmosphere environment with 5% C02 at 37° C. Cells are passaged at 3-day intervals.
3. Treating Astrocytes with SPT and Determining Cell Viability
Cells were seeded in 96-well culture dishes (Coming Glasswork, Coming, NY) in Dulbecco's modified Eagle's medium (DMEM) containing 10% fetal bovine serum (lnvitrogen) and 1% PSA (Biological Industries, Beit Haemek, Israel) at 8.000 cells/well and then treated with SPT, and cell viability levels were measured on days 1, 2 and 3. Cell viability is measured by using 3-(4,5-di-methyl-thiazol-2-yl)-5-(3-carboxy-methoxy-phenyl)-2-(4-sulfo-phenyl)-2H-tetrazolium (MTS)-method (CellTiter96 AqueousOne Solution; Promega, Southampton, UK). 10 μl MTS solution is added onto the cells in 100 μl growth medium and they are incubated in the dark for 2 hours. After the incubation period, viability analysis is obtained by performing absorbance measurement with an ELISA plate reader (Biotek, Winooski, VT) at 490 nm wavelength.

[2] = system: C8-S astrocyte cells infected with L. infantum parasites; assay: Infection rate of astrocytes infected with parasites after SPT treatment (flow cytometer); assay type: cell-based, Leishmania infantum
Description: Leishmania infimtum (MHOM/MA/67/TTMA-P263) promastigotes are incubated in RPMI medium (heat inactivated 1 0/4) fetal bovine serum, 2 mM L-glutamine, 20 mM HEPES, 100 U/ml penicillin, 100 μg/ml streptomycin) at 27° C. Parasites reaching the logarithmic phase (10^6/ml) are made infective.
as §1
C8-S astrocytes and L. infantum promastigotes were stained with PKH26 (Red Fluorescent Cell Linker Kit, Sigma-Aldrich) and PKH67 (Green Fluorescent Cell Linker Kit, Sigma-Aldrich), respectively, according to the procedure described previously in the article by Islek et al. (2021). A total cell concentration of 10^7 cells/ml was used. Before infection, the staining rate of parasites and cells was determined by flow cytometry.
5. Treating the Infected Astrocytes with SPT
The effect of SPT on the proliferation of astrocyte cells infected with parasites is analyzed. In summary, astrocytes are infected with parasites at 37° cat a ratio of 10:1 (parasite: astrocyte). After 3 and a half hours, infected astrocytes are washed with medium to remove the remaining parasites. Infected astrocytes are left to incubate with SPT at different concentration ranges for 3 days at 37° C., fixed at the end of 3 days and the infection rate is determined by flow cytometer. The percentage of infection is determined according to the following formula: […]

[3] = system: GSH level in astrocytes infected with Leishmania; assay: Oxidative stress by measurement of glutathione (GSH) level in infected astrocytes (DTNB); assay type: cell-based, murine; conditions: 50, 100, 150 and 200 μM SPT; 24 hours
Description: 6. Determining the Oxidative Stress by Measurement of Glutathione (GSH) Level in Astrocytes Infected with Leishmania
To determine the GSH level of infected astrocytes, cell lysate (50 ul) is suspended in DTNB (Ellman's reagent—5,5′-Dithiobis(2-nitrobenzoic acid)) (10 uL). Then, EDTA buffer solution (pH 8.2) is added to this mixture in a 96-well plate. After incubation in the dark at 37° C. for 30 minutes, absorbance is measured colorimetrically at a wavelength of 412 nm using a UV spectrophotometer (Thermo Scientific, Finland). The results are expressed as μmol/g protein.

[4] = SPT 50-400 μM, 24, 48 and 72 hours

C[C@@H]1[C@H](O)[C@@H](C)/C=C/C=C/C=C/C=C/C=C/C=C/C=C/[C@H](O[C@@H]2O[C@H](C)[C@@H](O)[C@H](N)[C@@H]2O)C[C@@H]2O[C@](O)(C[C@@H](O)C[C@@H](O)[C@H](O)CC[C@@H](O)C[C@@H](O)CC(=O)O[C@H]1C)C[C@H](O)[C@H]2C(=O)O [Amphotericin B]
cure (leishmaniasis; 6-month therapy): 97% | cure rate (leishmaniasis; cases where antimonial resistance is observed): ~100%

CCCCCCCCCCCCCCCCOP(=O)([O-])OCC[N+](C)(C)C [Miltefosine]
cure (leishmaniasis; miltefosine data compared with 6-month Amphotericin B therapy): 94% | cure (leishmaniasis; oral, 3-4-week treatment): 95-100%

O.O.O.O.[Na+].[O-]B1OO1 [SPT, sodium perborate tetrahydrate]
astrocyte cell viability compared to the negative control group ([1]; 100 μM SPT, after 72 hours): 100% | cell viability of healthy C8-S astrocytes ([1]; 200 μM SPT, 24, 48 and 72 hours): above 100% | toxic effect on healthy cells [1, 4]: showed no toxic effect on healthy cells | infection rate of infected astrocytes ([2]; 75 μM SPT, 24 hours, negative control approximately 23%): 20±3.33% | infection rate of infected astrocytes ([2]; 75 μM SPT, 72 hours, negative control 13%): approximately 4% | infection rate of infected astrocytes ([2]; 100 μM SPT, 24 hours, negative control approximately 23%): 17±2.86% | infection rate of infected astrocytes ([2]; 150 μM SPT, 24 hours, negative control approximately 23%): 11.89±3.56% | infection rate of infected astrocytes ([2]; 200 μM SPT, 24 hours, negative control approximately 23%): 7.97±1.51% | infection rate of infected astrocytes ([2]; 400 μM SPT, 24 hours, negative control approximately 23%): 12.63±1.78% | infection rate of infected astrocytes ([2]; 100, 150, 200, and 400 μM SPT, 72 hours, negative control 13%): ~7% | cell viability on astrocytes infected with Leishmania infantum promastigotes [2, 4]: statistically decreased cell viability | effect on cells infected with L. infantum parasites ([2]; SPT 75-200 μM): significant reduction | GSH levels in infected astrocytes compared to the negative control [3]: significantly inducing GSH levels
